Residues, ends and D or L forms follow the SMILES beside them.

Common to all, as to format: cell-based
Experiment [1] relates to HIV-1 NL4-3 L34S/D36G/E49K/E136G. Conditions: HP23-resistant L34S/D36G/E49K/E136G; p24 ELISA; mean ± SD of three independent experiments. A general note: In an ELISA, binding on a coated surface is turned into a signal by an enzyme label.
Procedure: (§1) Inhibitory activities of peptides on infection by HIV-1 X4 strain IIIB, R5 strain Bal, and T20-, T2635-, HP23-resistant strains were determined as previously described [42]. For each well of a 96-well plate, 50 μL of a peptide were mixed with 50 μL of 100 × TCID50 (50% tissue culture infective doses) of HIV-1 live virus and incubated at 37 °C for 30 min. Afterwards, 2 × 10^4 MT-2 (for X4 virus) or CEMx174 5.25 M7 cells (for R5 virus) were added. After overnight culture, the supernatant was replaced with fresh RPMI-1640 medium containing 10% fetal bovine serum (FBS). After further culture at 37 °C for three days, 50 μL of the culture medium were collected and mixed with equal volume of 5% (v/v) Triton X-100. The p24 antigen, which represents HIV-1 quantity, was detected by ELISA. Briefly, the collected mixtures were added to a plate coated with anti-HIV Immune Globulin (HIVIG) from the NIH AIDS Reagent Program. Anti-p24 mAb 183, rabbit anti-mouse IgG-HRP (Dako, Glostrup, Denmark) and substrate 3,3,5,5-TMB (Sigma-Aldrich, New York, NY) were added and washed away sequentially. The absorbance at 450 nm (A450) was determined by a Multi-Detection Microplate Reader (Ultra 384, Tecan, Tokyo, Japan). IC50s were calculated using Calcusyn software (Biosoft, Ferguson, MO), and the lines of best fit were drawn using GraphPad Prism 8 software (La Jolla, CA).
For experiment [2], the system named is cell-cell fusion between H9/IIIB cells and MT-2 cells. Description: HIV-1-mediated cell-cell fusion (dye transfer assay). The conditions noted are these: Calcein AM dye transfer; peptide 37 °C 30 min, then MT-2 cells 2 h; read-out: IC50 against cell-cell fusion between H9/IIIB cells and MT-2 cells. The method, then: A dye transfer assay was performed to detect HIV-1 Env-mediated cell-cell fusion as described previously. Briefly, for each well of a 96-well plate, 2 × 10^3 H9/IIIB cells labeled with the fluorescent reagent Calcein AM (Molecular Probes, Inc., Eugene, Oregon) were incubated with a CHR-peptide at 37 °C for 30 min. Afterwards, 10^4 MT-2 cells were added and incubated at 37 °C for 2 h. The fused and unfused Calcein-labeled H9/IIIB cells were counted under an inverted fluorescence microscope (Zeiss, Oberkochen, Germany). The IC50 values were calculated by using the Calcusyn computer program (Biosoft, Ferguson, MO).

The test system of a further experiment is HIV-1 LAI A6V. The conditions noted are these: T2635-resistant A6V; p24 ELISA; mean ± SD of three independent experiments.
In another experiment the test system is HIV-1IIIB (X4 virus). The method, then: To determine whether a peptide binds with the target cells in order to execute its anti-HIV-1 activity, cell wash and nonwash assays were performed as previously described. Briefly, 2 × 10^4 MT-2 cells were incubated with a peptide at 4 °C for 30 min, followed by washes of the pretreated cells to remove the unbound peptide (control: without washes) before addition of HIV-1IIIB (100 × TCID50). After culture at 37 °C overnight, the supernatant was replaced by fresh RPMI-1640 medium containing 10% FBS. The inhibitory activity of the cell-bound peptide in the wash group and free peptide in the nonwash group was determined as described above.

In experiment [3] the test system is HIV-1 NL4-3 (D36G) V38E, N42S. The conditions noted are these: T20-resistant (D36G) V38E, p24 ELISA, mean ± SD of three independent experiments.
Procedure: as §1
The subject of the next experiment is HIV-1 NL4-3 E49K/N126K. The conditions noted are these: HP23-resistant E49K/N126K; p24 ELISA; mean ± SD of three independent experiments.
Another experiment has as its system HIV-1 LAI Q66R. The conditions noted are these: T2635-resistant Q66R; p24 ELISA; mean ± SD of three independent experiments.
In the next experiment the test system is HIV-1 LAI (WT). Conditions: p24 ELISA, mean ± SD of three independent experiments.
The subject of the next experiment is HIV-1 LAI K154Q. The conditions noted are these: T2635-resistant K154Q; p24 ELISA; mean ± SD of three independent experiments.
For experiment [4], the system named is HIV-1 NL4-3 (D36G) V38A, N42T. The conditions noted are these: T20-resistant (D36G) V38A, p24 ELISA, mean ± SD of three independent experiments.
Procedure: as §1
For a further experiment, the system named is HIV-1 NL4-3 (WT). Conditions: p24 ELISA, mean ± SD of three independent experiments.
A further experiment relates to HIV-1 LAI K90E/N126K. Conditions: T2635-resistant K90E/N126K; p24 ELISA; mean ± SD of three independent experiments.
Experiment [5] has as its system HIV-1 NL4-3 (D36G) V38A, N42D. The conditions noted are these: T20-resistant (D36G) V38A, p24 ELISA, mean ± SD of three independent experiments.
Procedure: For each well of a 96-well plate, 50 μL of a peptide were mixed with 50 μL of 100 × TCID50 (50% tissue culture infective doses) of HIV-1 live virus and incubated at 37 °C for 30 min. Afterwards, 2 × 10^4 MT-2 (for X4 virus) or CEMx174 5.25 M7 cells (for R5 virus) were added. After overnight culture, the supernatant was replaced with fresh RPMI-1640 medium containing 10% fetal bovine serum (FBS). After further culture at 37 °C for three days, 50 μL of the culture medium were collected and mixed with equal volume of 5% (v/v) Triton X-100. The p24 antigen, which represents HIV-1 quantity, was detected by ELISA. Briefly, the collected mixtures were added to a plate coated with anti-HIV Immune Globulin (HIVIG) from the NIH AIDS Reagent Program. Anti-p24 mAb 183, rabbit anti-mouse IgG-HRP (Dako, Glostrup, Denmark) and substrate 3,3,5,5-TMB (Sigma-Aldrich, New York, NY) were added and washed away sequentially. The absorbance at 450 nm (A450) was determined by a Multi-Detection Microplate Reader (Ultra 384, Tecan, Tokyo, Japan). IC50s were calculated using Calcusyn software (Biosoft, Ferguson, MO), and the lines of best fit were drawn using GraphPad Prism 8 software (La Jolla, CA).
In another experiment the test system is HIV-1 LAI Q79E/N126K. Conditions: T2635-resistant Q79E/N126K; p24 ELISA; mean ± SD of three independent experiments.
The subject of experiment [6] is HIV-1 NL4-3 (D36G) N42T, N43K. The conditions noted are these: T20-resistant (D36G) N42T, p24 ELISA, mean ± SD of three independent experiments.
Procedure: as §1
The test system of the next experiment is HIV-1 NL4-3 D36G (WT). Conditions: p24 ELISA, mean ± SD of three independent experiments.
The next experiment has as its system HIV-1 NL4-3 E49K. Conditions: HP23-resistant E49K; p24 ELISA; mean ± SD of three independent experiments.
The subject of a further experiment is HIV-1 NL4-3 (D36G) V38A. Conditions: T20-resistant (D36G) V38A; p24 ELISA; mean ± SD of three independent experiments.
Another experiment relates to HIV-1 LAI K90E. The conditions noted are these: T2635-resistant K90E; p24 ELISA; mean ± SD of three independent experiments.
For experiment [7], the system named is HIV-1 NL4-3 D36G/E49K/N126K. The conditions noted are these: HP23-resistant D36G/E49K/N126K; p24 ELISA; mean ± SD of three independent experiments.
Procedure: as §1

Procedure for HIV-1 LAI A6V: as §1
Procedure for HIV-1 LAI K154Q: as §1
Procedure for HIV-1 LAI K90E/N126K: as §1
Procedure for HIV-1 LAI Q66R: as §1
Procedure for HIV-1 LAI Q79E/N126K: as §1
Procedure for HIV-1 NL4-3 (WT): as §1
Procedure for HIV-1 NL4-3 D36G (WT): as §1
Procedure for HIV-1 NL4-3 E49K/N126K: as §1

Regarding `CC[C@H](C)[C@H](NC(=O)[C@H](CCC(N)=O)NC(=O)[C@H](CCC(N)=O)NC(=O)[C@H](CC(N)=O)NC(=O)[C@H](CCC(N)=O)NC(=O)[C@H](CO)NC(=O)[C@H](CCCCN)NC(=O)[C@H](CCCCN)NC(=O)[C@H](CC(C)C)NC(=O)[C@@H](NC(=O)[C@H](CCC(=O)O)NC(=O)[C@H](CCC(=O)O)NC(=O)[C@@H](NC(=O)[C@H](CCCCN)NC(=O)[C@H](CCCCN)NC(=O)[C@@H](NC(=O)[C@H](Cc1ccc(O)cc1)NC(=O)[C@H](CCC(=O)O)NC(=O)[C@H](CCC(=O)O)NC(=O)[C@@H](NC(=O)[C@H](CCCCN)NC(=O)[C@H](CCCCN)NC(=O)[C@H](CCC(=O)O)NC(=O)[C@H](Cc1c[nH]c2ccccc12)NC(=O)[C@H](CCC(=O)O)NC(=O)[C@H](CCC(=O)O)NC(=O)[C@H](Cc1c[nH]c2ccccc12)NC(=O)[C@@H](NC(=O)[C@H](CCSC)NC(=O)[C@@H](N)CCC(=O)O)[C@@H](C)O)[C@@H](C)CC)[C@@H](C)O)[C@@H](C)CC)[C@@H](C)CC)C(=O)N[C@@H](CC(=O)O)C(=O)N[C@@H](CC(C)C)C(=O)O` [HP23-E6-IDL] (H-EMTWEEWEKKIEEYTKKIEEILKKSQNQQIDL-OH), the IC50 in [1] is 4.94 ± 1.1 nM; in experiment [2], 1.14 nM; in the experiment on HIV-1 LAI A6V it was 0.349 ± 0.019 nM; in the experiment on HIV-1IIIB (X4 virus) it was 2.4 nM; in experiment [3], 0.748 ± 0.012 nM; in the experiment on HIV-1 NL4-3 E49K/N126K, 2.56 ± 0.318 nM. The IC50 in the experiment with HIV-1 LAI Q66R was 0.496 ± 0.168 nM; with HIV-1 LAI (WT), 0.932 ± 0.059 nM; in the experiment on HIV-1 LAI K154Q it was 1.25 ± 0.249 nM; in experiment [4] it was 0.838 ± 0.031 nM; in the experiment on HIV-1 NL4-3 (WT) it was 0.699 ± 0.025 nM; in the experiment on HIV-1 LAI K90E/N126K, 0.842 ± 0.066 nM. Moreover, the IC50 in [5] was 1.54 ± 0.253 nM; in the experiment with HIV-1 LAI Q79E/N126K it was 1.31 ± 0.059 nM; in [6], 0.941 ± 0.019 nM; in the experiment on HIV-1 NL4-3 D36G (WT), 0.912 ± 0.029 nM; in the experiment on HIV-1 NL4-3 E49K, 2.04 ± 0.126 nM; with HIV-1 NL4-3 (D36G) V38A it was 0.647 ± 0.024 nM. In addition, the IC50 in the experiment on HIV-1 LAI K90E was 1.42 ± 0.242 nM; in experiment [7] it was 3.14 ± 0.4 nM.

(Values after publication PMC6470885 (Molecules, 2019).)
